The assay has as its target T1, human CRTH2 (Homo sapiens, UniProt Q9Y5Y4).
T1 sequence (Q9Y5Y4 1-395): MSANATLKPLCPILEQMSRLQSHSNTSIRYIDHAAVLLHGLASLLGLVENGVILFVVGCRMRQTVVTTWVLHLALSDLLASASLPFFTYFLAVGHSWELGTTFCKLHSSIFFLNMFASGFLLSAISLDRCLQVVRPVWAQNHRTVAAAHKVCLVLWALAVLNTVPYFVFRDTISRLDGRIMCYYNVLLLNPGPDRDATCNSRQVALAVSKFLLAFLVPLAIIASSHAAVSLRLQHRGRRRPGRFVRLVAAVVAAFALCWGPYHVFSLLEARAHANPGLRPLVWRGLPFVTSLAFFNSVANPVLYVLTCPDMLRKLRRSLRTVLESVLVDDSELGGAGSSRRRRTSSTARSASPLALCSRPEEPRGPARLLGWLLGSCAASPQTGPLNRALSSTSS
The assay can be described thus: CRTH-2 binding assay (scintillation proximity assay, inhibition of 3H-PGD2 binding). Also noted: expressed in transfected cells; host or cells: 293EBNA-hCRTH2 cells (membrane preparation). The conditions noted are these: membranes from 293EBNA-hCRTH2 cells, 3H-PGD2 3.6 nM; Ki calculated from IC50. As to the method:
A CRTH2 binding assay was developed to measure the ability of compounds to inhibit the binding of PGD2 to human CRTH2 using a scintillation proximity assay.
Membranes containing hCRTH2 receptors were prepared from 293EBNA-hCRTH2 cells (a 293EBNA cell line stably expressing human CRTH2). The cells were grown to confluency, harvested and washed with PBS. The cells were resuspended in 10 mM Hepes pH 7.4, 1 mM EDTA and protease inhibitors and incubated for 30 min on ice. The cells were homogenized and centrifuged for 10 min at 1000×g. The supernate was centrifuged for 30 min at 100,000×g and the membrane pellet was then resuspended in 10 mM Hepes pH 7.4 and 1 mM EDTA. The protein concentration of the membrane preparation was determined by Bradford assay (Bio-Rad).
The ability of compounds to inhibit the interaction of PGD2 to human CRTH2 was determined at seven compound concentrations. Compounds were serially diluted in DMSO then diluted into CRTH2 buffer (10 mM Hepes pH 7.4, 1 mM EDTA, 10 mM MnCl2) to six times the final desired concentration. 20 μL of the diluted compounds were transferred into non-surface binding 96-well plates (Corning). Each concentration was done in triplicate. In addition to test compounds, each plate contained 12 control wells. Six of these wells contained 20 μL of CRTH2 buffer. These wells were used to measure total binding. Six wells contained 20 μL of CRTH2 buffer plus 1.5 mM indomethacin. These wells were used to measure non-specific binding. Next, 293EBNA-hCRTH2 membranes were resuspended in CRTH2 buffer with glycerol (10 mM Hepes pH 7.4, 1 mM EDTA, 10 mM MnCl2, 25% glycerol) so that the final concentration was approximately 20 μg/100 μL. Polylysine-coated yttrium silicate SPA beads (Amersham) were added to the membrane mix to a concentration of 0.4 mg/100 μL and finally ^3H-PGD2 was added to the membrane/SPA bead mix to 3.6 nM. 100 μL of the membrane/SPA bead/^3H-PGD2 mix was added to each well of the non-surface binding plates containing the diluted compound or controls. The plates were incubated for 2 hours at room temperature with shaking and then the plates were counted on a Microbeta scintillation counter (Perkin Elmer) for 1 min per well.
IC50 values were determined from the experimental results by nonlinear regression using Prism 4.0 software. The IC50 values were then used in conjunction with the Kd for hCRTH2 and the ^3H-PGD2 concentration used in the experiment to calculate the Ki for each compound.

Here are results for 29 molecules from US7732618B2, “Benzimidazole acetic acids exhibiting CRTH2 receptor antagonism and uses thereof” (Wyeth, priority 2004, dated 2010).

The term Ki denotes a measure of affinity in units of concentration, obtained from inhibition or displacement. Take `CCCc1nc2cc(N(Cc3c(C)noc3C)S(=O)(=O)c3ccc(F)cc3)ccc2n1CC(=O)O` [Example 24, {5-[(3,5-Dimethyl-isoxazol-4-ylmethyl)-(4-fluoro-benzenesulfonyl)-amino]-2-propyl-benzoimidazol-1-yl}-acetic acid]: the Ki is less than 1000 nM. Take `CC(C)=CCCC(C)c1nc2cc(NS(=O)(=O)c3ccc(F)cc3)ccc2n1CC(=O)O` (centres unmarked) [Example 4, [2-(1,5-Dimethyl-hex-4-enyl)-5-(4-fluoro-benzenesulfonylamino)-benzoimidazol-1-yl]-acetic acid]: the Ki was less than 10000 nM.

As for `CCCc1nc2cc(N(Cc3ccc(F)cc3)S(=O)(=O)c3cccc(F)c3)ccc2n1CC(=O)O` [Example 27, {5-[(3-Fluoro-benzenesulfonyl)-(4-fluoro-benzyl)-amino]-2-propyl-benzoimidazol-1-yl}-acetic acid], the Ki was less than 1000 nM. With `CCCc1nc2cc(N(Cc3ccccc3)C(=O)CC(C)C)ccc2n1CC(=O)O` [Example 59, {5-[Benzyl-(3-methyl-butyryl)-amino]-2-propyl-benzoimidazol-1-yl}-acetic acid] the figure was less than 10000 nM.

Regarding `CCCc1nc2cc(N(Cc3csc(C)n3)S(=O)(=O)c3ccc(F)cc3)ccc2n1CC(=O)O` [Example 22, {5-[(4-Fluoro-benzenesulfonyl)-(2-methyl-thiazol-4-ylmethyl)-amino]-2-propyl-benzoimidazol-1-yl}-acetic acid], the Ki was less than 1000 nM. With `CCCc1nc2cc(N(Cc3ccccc3)C(=O)c3ccc(F)cc3)ccc2n1CC(=O)O` [Example 66, {5-[Benzyl-(4-fluoro-benzoyl)-amino]-2-propyl-benzoimidazol-1-yl}-acetic acid], the inhibition constant Ki was less than 1000 nM. For `CCCc1nc2cc(N(Cc3ccc(F)cc3)S(=O)(=O)CC)ccc2n1CC(=O)O` [Example 29, {5-[Ethanesulfonyl-(4-fluoro-benzyl)-amino]-2-propyl-benzoimidazol-1-yl}-acetic acid] the value was less than 1000 nM; for `CCCc1nc2cc(N(Cc3ccccc3)C(=O)c3cccc(F)c3)ccc2n1CC(=O)O` [Example 65, {5-[Benzyl-(3-fluoro-benzoyl)-amino]-2-propyl-benzoimidazol-1-yl}-acetic acid], less than 10000 nM. For the molecule `CCCCc1nc2cc(N(C)S(=O)(=O)c3ccc(F)cc3)ccc2n1CC(=O)O` [Example 17, {2-Butyl-5-[(4-fluoro-benzenesulfonyl)-methyl-amino]-benzoimidazol-1-yl}-acetic acid], the Ki was less than 1000 nM. For `CCCc1nc2c(N(Cc3ccc(F)cc3)S(=O)(=O)c3cccc(F)c3)cccc2n1CC(=O)O` [Example 37, {4-[(3 -Fluoro-benzenesulfonyl)-(4-fluoro-benzyl)-amino]-2-propyl-benzoimidazol-1-yl}-acetic acid] the value was less than 1000 nM; for `CCc1nc2cc(NS(=O)(=O)c3ccc(F)cc3)ccc2n1CC(=O)O` [Example 3, [2-Ethyl-5-(4-fluoro-benzenesulfonylamino)-benzoimidazol-1-yl]-acetic acid], less than 1000 nM. `CCCc1nc2cc(N(Cc3ccccc3)C(=O)C(C)C)ccc2n1CC(=O)O` [Example 58, [5-(Benzyl-isobutyryl-amino)-2-propyl-benzoimidazol-1-yl]-acetic acid]: the Ki is greater than 10000 nM. In the case of `CCCc1nc2cc(N(Cc3cccc(F)c3)S(=O)(=O)c3ccc(F)cc3)ccc2n1CC(=O)O` [Example 50, {5-[(4-Fluoro-benzenesulfonyl)-(3-fluoro-benzyl)-amino]-2-propyl-benzoimidazol-1-yl}-acetic acid], the Ki is less than 1000 nM. For `CCCc1nc2cc(N(Cc3ccc(F)cc3)S(=O)(=O)c3ccccc3F)ccc2n1CC(=O)O` [Example 28, {5-[(2-Fluoro-benzenesulfonyl)-(4-fluoro-benzyl)-amino]-2-propyl-benzoimidazol-1-yl}-acetic acid] the value was less than 1000 nM; for `CCCCCc1nc2cc(NS(=O)(=O)c3ccc(F)cc3)ccc2n1CC(=O)O` [Example 9, [5-(4-Fluoro-benzenesulfonylamino)-2-pentyl-benzoimidazol-1-yl]-acetic acid], greater than 10000 nM. Take `CCCCc1nc2cc(N(Cc3ccccc3)S(=O)(=O)c3ccc(F)cc3)ccc2n1CC(=O)O` [Example 15, {5-[Benzyl-(4-fluoro-benzenesulfonyl)-amino]-2-butyl-benzoimidazol-1-yl}-acetic acid]: the Ki is less than 1000 nM.

For `CCCc1nc2cc(NC(=O)OC(C)(C)C)ccc2n1CC(=O)O` [Example 25, (5-tert-Butoxycarbonylamino-2-propyl-benzoimidazol-1-yl)-acetic acid], the Ki was less than 10000 nM. Take `CCCc1nc2cc(N(Cc3ccccc3)C(=O)c3ccc(Cl)cc3)ccc2n1CC(=O)O` [Example 63, {5-[Benzyl-(4-chloro-benzoyl)-amino]-2-propyl-benzoimidazol-1-yl}-acetic acid]: the Ki was less than 1000 nM. For `CCCc1nc2cc(N(Cc3cccc(Cl)c3Cl)S(=O)(=O)c3ccc(F)cc3)ccc2n1CC(=O)O` [Example 44, {5-[(2,3-Dichloro-benzyl)-(4-fluoro-benzenesulfonyl)-amino]-2-propyl-benzoimidazol-1-yl}-acetic acid] the value was less than 100 nM; for `CCCc1nc2cc(N(Cc3ccccc3)C(C)=O)ccc2n1CC(=O)O` [Example 57, [5-(Acetyl-benzyl-amino)-2-propyl-benzoimidazol-1-yl]-acetic acid], less than 10000 nM; for `CCCc1nc2c(N(Cc3ccccc3)S(=O)(=O)c3cccc(F)c3)cccc2n1CC(=O)O` [Example 34, {4-[Benzyl-(3-fluoro-benzenesulfonyl)-amino]-2-propyl-benzoimidazol-1-yl}-acetic acid], less than 1000 nM. For `CCCc1nc2cc(N(Cc3nc4ccccc4s3)S(=O)(=O)c3ccc(F)cc3)ccc2n1CC(=O)O` [Example 55, {5-[Benzothiazol-2-ylmethyl-(4-fluoro-benzenesulfonyl)-amino]-2-propyl-benzoimidazol-1-yl}-acetic acid] the value was less than 100 nM. In the case of `CCCc1nc2c(N(CCC(C)C)S(=O)(=O)c3cccc(F)c3)cccc2n1CC(=O)O` [Example 36, {4-[(3-Fluoro-benzenesulfonyl)-(3-methyl-butyl)-amino]-2-propyl-benzoimidazol-1-yl}-acetic acid], the Ki was less than 1000 nM.

`CCCc1nc2c(N(CCOC)S(=O)(=O)c3cccc(F)c3)cccc2n1CC(=O)O` [Example 35, {4-[(3-Fluoro-benzenesulfonyl)-(2-methoxy-ethyl)-amino]-2-propyl-benzoimidazol-1-yl}-acetic acid]: the Ki is less than 10000 nM. Turning to `CSCCc1nc2cc(NS(=O)(=O)c3ccc(F)cc3)ccc2n1CC(=O)O` [Example 5, [5-(4-Fluoro-benzenesulfonylamino)-2-(2-methylsulfanyl-ethyl)-benzoimidazol-1-yl]-acetic acid], the Ki was less than 10000 nM. On to `CC(C)c1nc2cc(N(Cc3ccccc3)S(=O)(=O)c3ccc(F)cc3)ccc2n1CC(=O)O` [Example 16, {5-[Benzyl-(4-fluoro-benzenesulfonyl)-amino]-2-isopropyl-benzoimidazol-1-yl}-acetic acid], for which the Ki is less than 1000 nM. Regarding `CC(Cc1nc2cc(NS(=O)(=O)c3ccc(F)cc3)ccc2n1CC(=O)O)CC(C)(C)C` (centres unmarked) [Example 8, [5-(4-Fluoro-benzenesulfonylamino)-2-(2,4,4-trimethyl-pentyl)-benzoimidazol-1-yl]-acetic acid], the Ki was greater than 10000 nM. With `CC(C)Cc1nc2cc(NS(=O)(=O)c3ccc(F)cc3)ccc2n1CC(=O)O` [Example 7, [5-(4-Fluoro-benzenesulfonylamino)-2-isobutyl-benzoimidazol-1-yl]-acetic acid] the figure was less than 10000 nM; with `CCCc1nc2cc(N(Cc3ccccc3)C(=O)C3CCCCC3)ccc2n1CC(=O)O` [Example 61, [5-(Benzyl-cyclohexanecarbonyl-amino)-2-propyl-benzoimidazol-1-yl]-acetic acid], less than 10000 nM.
